Values of other authors in US11213557B2, “Lactobacillus plantarum CCFM1019, fermented foods thereof, and application thereof in preparation of medicine for promoting excretion of plasticizers and metabolites thereof from body” (priority 2018, dated 2022).

[1] = human body, 24 h after DEHP enters the body

## CCCCC(CC)COC(=O)c1ccccc1C(=O)OCC(CC)CCCC (centres unmarked) [DEHP, bis(2-ethylhexyl) phthalate]
DEHP stored in adipose tissue
  Half-life: 156 h
Human body
  Absorption and distribution period: 4 to 8 h
  Time within which most of the DEHP is completely metabolized: ≤ 24 h
[1]
  DEHP converted into five secondary metabolites and excreted in urine: about 67%
  DEHP directly excreted in urine: less than 10%
